The values that follow are results of earlier work, collected in patent publication US20040265249A1, “Composition for protecting skin from damaging effects of ultraviolet light” (Desert Whale Jojoba Company, priority 2003, published 2004).

For the data set the following is noted: Yagi K, Ohishi N, 1979.

For `COc1cc(/C=C/C(=O)O)ccc1O` [ferulic acid], the antioxidant action entry is “can scavenge free radicals”.
